Laboratory results: patent US20070219210A1, “Amidopyrazole Derivative” (Daiichi Pharmaceutical Co., LTD., priority 2003, published 2007)
Read-outs that look alike come from different tables or passages of the source.

Experiments:
[1] = system: collagen-induced platelet coagulation; conditions: background art (Patent Document 1, Non-patent Document 5); read-out: IC50 value against collagen-induced platelet coagulation; cited from earlier work
Cyclooxygenase-2 (COX-2) = molecular target: T1, Cyclooxygenase-2 (COX-2) (Homo sapiens, UniProt P35354); assay: COX Inhibitor Screening Assay Kit (Cayman), PGF2α by ELISA, COX-2; type: biochemical; conditions: compound at 50 μm; relative to PGF2α produced without compound (100%)
T1 construct: purchased Cayman Chemical Company 560121
T1 sequence (P35354 18-604): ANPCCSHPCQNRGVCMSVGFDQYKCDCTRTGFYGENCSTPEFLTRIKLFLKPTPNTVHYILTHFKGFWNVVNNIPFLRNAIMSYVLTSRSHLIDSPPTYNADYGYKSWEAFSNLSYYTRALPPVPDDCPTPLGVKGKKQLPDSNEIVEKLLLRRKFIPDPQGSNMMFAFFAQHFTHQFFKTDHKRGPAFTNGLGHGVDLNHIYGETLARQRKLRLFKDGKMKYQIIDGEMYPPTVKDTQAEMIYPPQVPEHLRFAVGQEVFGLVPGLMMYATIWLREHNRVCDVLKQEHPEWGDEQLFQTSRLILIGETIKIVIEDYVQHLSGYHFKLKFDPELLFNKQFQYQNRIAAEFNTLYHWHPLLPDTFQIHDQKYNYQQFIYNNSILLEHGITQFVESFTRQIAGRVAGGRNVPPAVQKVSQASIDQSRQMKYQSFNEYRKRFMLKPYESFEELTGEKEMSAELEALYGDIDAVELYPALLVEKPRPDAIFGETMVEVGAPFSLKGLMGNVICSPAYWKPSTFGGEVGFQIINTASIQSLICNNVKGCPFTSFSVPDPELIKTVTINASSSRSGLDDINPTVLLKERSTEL
Experimental: (§1) Inhibitory activity against COX-1 and COX-2 of the compounds produced in the Examples was measured by using COX Inhibitor Screening Assay Kit (Catalog Nos. 560101 and 560121) purchased from Cayman Chemical Company.
(§2) Before starting the measurement, reaction buffer, heme, arachidonic acid, SnCl2, EIA buffer, washing buffer, prostaglandin (PG) screening EIA standard, PG screening acetylcholine esterase (AchE), tracer (chromogenic enzyme HRP conjugate), and PC screening EIA antiserum were prepared ready for use.
(§3) The reaction mixture containing the compound of the Examples (50 μM) and COX-1 or COX-2 was allowed to stand at 37° C. or 10 minutes, and after adding 10 μl of arachidonic acid, the solution was again allowed to stand at 37° C. for 2 minutes. After the reaction, the reaction was terminated by adding 50 μl of 1N-hydrochloric acid, and 100 μl solution of SnCl2 was added, and the reaction mixture was allowed to stand at room temperature for 5 minutes.
(§4) 50 μl of antiserum (rabbit anti-PGF2α antibody) was placed in the wells of 96 well plate that had been coated with mouse anti-rabbit IgG and 50 μl of the 2000-fold diluted PGF2α-containing liquid described above and 50 μl of AchE tracer were added to the well in this order, and the mixture was allowed to stand at room temperature for 18 hours. The wells were washed 5 times with the washing buffer to remove an excessive AchE tracer, and 200 μl of Ellman reagent was added. After leaving the plate in a dark room for 60 minutes, absorbance was measured at 405 nm.
(§5) A calibration curve was obtained by using the PG screening EIA standard, and the amount of PGF2α produced was determined from the absorption. Inhibitory rate at 50 μM of the compound of the Examples against COX-1 or COX-2 was calculated.
(§6) It is to be noted that the inhibitory rate was calculated in relation to the amount of the PGF2α produced by the reaction liquid free from the compounds of the Examples, which was taken 100%.

Cyclooxygenase-1 (COX-1) = molecular target: T2, Cyclooxygenase-1 (COX-1) (Ovis aries, UniProt P05979); assay: COX Inhibitor Screening Assay Kit (Cayman), PGF2α by ELISA, COX-1; type: biochemical; conditions: compound at 50 μm; relative to PGF2α produced without compound (100%)
T2 construct: purchased Cayman Chemical Company 560101
T2 sequence (P05979 25-600): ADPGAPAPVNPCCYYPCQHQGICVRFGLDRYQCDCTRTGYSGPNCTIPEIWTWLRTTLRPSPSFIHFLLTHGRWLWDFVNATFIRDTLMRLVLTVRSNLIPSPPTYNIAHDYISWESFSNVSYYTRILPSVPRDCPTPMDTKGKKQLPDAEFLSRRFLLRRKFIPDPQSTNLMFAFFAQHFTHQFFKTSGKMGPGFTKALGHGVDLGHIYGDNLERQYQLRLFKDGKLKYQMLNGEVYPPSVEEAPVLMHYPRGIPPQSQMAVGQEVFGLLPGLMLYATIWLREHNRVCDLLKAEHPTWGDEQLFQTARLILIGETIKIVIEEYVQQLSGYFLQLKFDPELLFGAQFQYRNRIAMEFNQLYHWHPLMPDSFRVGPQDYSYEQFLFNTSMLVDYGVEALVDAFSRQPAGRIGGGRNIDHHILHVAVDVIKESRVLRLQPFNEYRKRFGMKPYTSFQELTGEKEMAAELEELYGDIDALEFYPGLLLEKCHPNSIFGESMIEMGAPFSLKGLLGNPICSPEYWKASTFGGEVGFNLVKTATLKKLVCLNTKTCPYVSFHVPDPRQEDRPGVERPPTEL
Experimental: as §1, §2, §3, §4, §5, §6

[2] = system: collagen-induced platelet coagulation; assay: Inhibitory effect on collagen-induced platelet coagulation in platelet rich plasma; type: cell-based; conditions: human platelet rich plasma, 37° C., coagulation induced with collagen; read-out: Inhibition of collagen-induced platelet coagulation, IC50
Experimental: Human blood was collected by using 1/10 volume of 3.13% sodium citrate as an anticoagulant, and the blood was centrifuged at 180 g for 10 minutes to separate platelet rich plasma (PRP), which was the upper layer. After collecting the upper layer PRP, the remaining lower layer was centrifuged at 1600 g for 10 minutes, and platelet poor plasma (PPP) in the upper layer was collected. 1 μl solution of the compound of the Examples was added to 200 μl of the PRP, and after allowing the sample to stand at 37° C. for 2 minutes, 2 μl of collagen was added in order to induce platelet coagulation. Platelet coagulation rate was measured with PAM-12C (SSR Engineering).

SMILES | IC50 [1] | Inhibitory effect against COX-2 at 50 μm (% inhibition) (Cyclooxygenase-2 (COX-2)) | Inhibitory effect against COX-1 at 50 μm (% inhibition) (Cyclooxygenase-1 (COX-1)) | IC50 [2]
CS(=O)(=O)c1ccc(-c2cc(C#N)nn2-c2ccc(F)cc2)cc1 [Compound (A)] | 5300 nM |  |  | 
COCC(C)(C)NC(=O)c1cc(-c2ccccn2)n(-c2ccc(OC)nn2)n1 [Example 40, N-(2-Methoxy-1,1-dimethylethyl)-1-(6-methoxy-3-pyridazinyl)-5-(2-pyridyl)-1H-pyrazole-3-carboxamide] |  | 14.8 % inhibition | 72 % inhibition | 65 nM
COc1ccc(-n2nc(C(=O)NCC3CCCO3)cc2-c2ccccn2)cn1 (stereo not shown) [Example 44, N-(Tetrahydro-2-furanylmethyl)-1-(6-methoxy-3-pyridyl)-5-(2-pyridyl)-1H-pyrazole-3-carboxamide] |  | 3.6 % inhibition | 4.3 % inhibition | 140 nM
COc1ccc(-n2nc(C(=O)NC3(C(N)=O)CCCC3)cc2-c2ccccn2)cn1 [Example 48, N-(1-Carbamoyl-1-cyclopentyl)-1-(6-methoxy-3-pyridyl)-5-(2-pyridyl)-1H-pyrazole-3-carboxamide] |  | 8.7 % inhibition | 3.6 % inhibition | 190 nM
COc1ccc(-n2nc(C(=O)NC3CCCC3)cc2-c2ccccn2)nn1 [Example 56, N-Cyclopentyl-1-(6-methoxy-3-pyridazinyl)-5-(2-pyridyl)-1H-pyrazole-3-carboxamide] |  | −1.7 % inhibition | −1.2 % inhibition | 92 nM
Cc1cnc(-c2cc(C(=O)NC(C)(C)C)nn2-c2cccnc2)cn1 [Example 65, N-tert-Butyl-5-(5-methyl-2-pyrazinyl)-1-(3-pyridyl)-1H-pyrazole-3-carboxamide] |  | −1.6 % inhibition | 11.6 % inhibition | 20 nM
